The results in this text go back to ChEMBL document CHEMBL1201862, “PubChem BioAssay data set” (2004).

Assay [1] deals with T1, High affinity choline transporter 1 (Homo sapiens, UniProt Q9GZV3).
T1 sequence (Q9GZV3 whole entry): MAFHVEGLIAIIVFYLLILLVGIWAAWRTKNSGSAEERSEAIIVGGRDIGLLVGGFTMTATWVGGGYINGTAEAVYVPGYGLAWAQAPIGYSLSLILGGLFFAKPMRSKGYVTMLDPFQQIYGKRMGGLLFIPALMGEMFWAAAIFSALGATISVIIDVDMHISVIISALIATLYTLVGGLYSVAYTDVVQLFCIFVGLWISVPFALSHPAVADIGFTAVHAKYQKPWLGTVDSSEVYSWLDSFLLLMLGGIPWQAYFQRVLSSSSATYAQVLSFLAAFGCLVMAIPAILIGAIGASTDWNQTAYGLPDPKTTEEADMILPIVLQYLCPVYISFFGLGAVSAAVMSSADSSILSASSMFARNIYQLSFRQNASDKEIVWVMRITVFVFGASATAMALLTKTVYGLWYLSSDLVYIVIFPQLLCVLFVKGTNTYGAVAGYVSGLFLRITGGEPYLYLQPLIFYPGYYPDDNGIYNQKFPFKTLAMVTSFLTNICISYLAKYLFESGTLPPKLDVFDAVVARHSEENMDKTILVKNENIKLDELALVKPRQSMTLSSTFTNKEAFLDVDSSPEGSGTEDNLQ
Briefly: human choline transporter blockers, potency – cell-based, 5-point CRC, membrane potential dye, dose response (AID 504840). Format: functional.

Assay [2] can be described thus: Luminescence Cell-Based Dose Retest to Confirm Inhibitors of Cancer Stem Cells. [Related pubchem assays (depositor defined):AID2717, AID2721]. It is filed as functional. To be noted: Homo sapiens.
A short description of assay [3]: microbe, parasite or virus in culture. Format: functional. To be noted: Mycobacterium tuberculosis.
Assay [4] deals with Heat shock protein HSP 90-alpha (Homo sapiens, UniProt P07900). It is filed as functional, organism-based.
Assay [5] has as its target T2, Replicative DNA helicase DnaB (Mycobacterium tuberculosis, UniProt P9WMR3).
T2 sequence (P9WMR3 whole entry): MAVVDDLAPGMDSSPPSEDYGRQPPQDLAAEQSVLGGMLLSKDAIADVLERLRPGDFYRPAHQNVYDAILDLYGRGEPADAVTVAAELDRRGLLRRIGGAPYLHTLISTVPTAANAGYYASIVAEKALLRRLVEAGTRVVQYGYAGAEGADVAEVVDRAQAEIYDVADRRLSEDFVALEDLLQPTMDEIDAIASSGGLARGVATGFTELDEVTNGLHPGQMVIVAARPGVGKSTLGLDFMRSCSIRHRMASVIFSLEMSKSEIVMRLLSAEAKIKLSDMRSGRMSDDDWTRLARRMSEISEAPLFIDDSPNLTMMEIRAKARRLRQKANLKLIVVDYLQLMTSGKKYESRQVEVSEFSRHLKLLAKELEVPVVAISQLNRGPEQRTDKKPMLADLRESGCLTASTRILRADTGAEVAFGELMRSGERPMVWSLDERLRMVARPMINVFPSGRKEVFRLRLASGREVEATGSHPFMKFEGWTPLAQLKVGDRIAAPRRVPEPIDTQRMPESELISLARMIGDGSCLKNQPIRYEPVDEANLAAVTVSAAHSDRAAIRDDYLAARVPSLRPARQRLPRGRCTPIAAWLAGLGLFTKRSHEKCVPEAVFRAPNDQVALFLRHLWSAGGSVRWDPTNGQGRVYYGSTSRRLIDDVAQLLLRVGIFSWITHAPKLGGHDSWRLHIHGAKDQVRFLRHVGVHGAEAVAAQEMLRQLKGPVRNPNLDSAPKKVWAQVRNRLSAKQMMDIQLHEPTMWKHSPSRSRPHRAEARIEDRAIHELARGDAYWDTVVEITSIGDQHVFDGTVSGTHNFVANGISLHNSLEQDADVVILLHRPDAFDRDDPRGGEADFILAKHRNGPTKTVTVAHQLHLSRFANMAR
Description: DnaB intein splicing inhibitors, dose response, biochemical, cell-free fluorescence (AID 449749). Format: functional.

The target of the next assay is T3, Protein RecA (Mycobacterium tuberculosis, UniProt P9WHJ3).
T3 sequence (P9WHJ3 whole entry): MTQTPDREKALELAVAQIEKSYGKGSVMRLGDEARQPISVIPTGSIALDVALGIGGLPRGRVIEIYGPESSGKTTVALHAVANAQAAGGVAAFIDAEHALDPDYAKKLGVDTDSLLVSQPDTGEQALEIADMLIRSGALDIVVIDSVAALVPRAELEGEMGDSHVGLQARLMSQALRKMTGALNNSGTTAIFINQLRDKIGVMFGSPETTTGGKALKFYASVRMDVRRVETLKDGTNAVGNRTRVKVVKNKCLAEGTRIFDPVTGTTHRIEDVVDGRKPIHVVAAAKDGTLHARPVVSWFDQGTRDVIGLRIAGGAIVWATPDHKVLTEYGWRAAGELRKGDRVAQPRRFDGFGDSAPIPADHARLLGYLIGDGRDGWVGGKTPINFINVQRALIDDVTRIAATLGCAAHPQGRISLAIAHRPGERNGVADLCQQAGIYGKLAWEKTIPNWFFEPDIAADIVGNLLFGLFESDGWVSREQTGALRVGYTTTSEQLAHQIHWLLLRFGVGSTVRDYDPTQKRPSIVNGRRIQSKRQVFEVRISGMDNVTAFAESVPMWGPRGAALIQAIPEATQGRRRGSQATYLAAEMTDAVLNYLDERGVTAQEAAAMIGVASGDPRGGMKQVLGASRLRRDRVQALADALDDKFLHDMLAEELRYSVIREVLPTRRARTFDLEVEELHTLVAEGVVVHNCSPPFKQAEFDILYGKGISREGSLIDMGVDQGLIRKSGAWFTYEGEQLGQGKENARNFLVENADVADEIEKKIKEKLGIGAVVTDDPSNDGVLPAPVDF
Description: Fluorescence Cell-Free Homogeneous Dose Retest to Identify Inhibitors of RecA-Intein Splicing Activity. [Related pubchem assays (depositor defined):AID2097, AID2223, AID489010, AID492950]. It is filed as functional.

A further assay relates to P388/ADR. Briefly: cells. Format: functional. As to conditions: Mus musculus.
For another assay, the system named is SN12K1. Description: cells. To be noted: Homo sapiens. Format: functional.
The next assay relates to P388. Briefly: cells. It is filed as functional. As to conditions: Mus musculus.
The target of another assay is T4, Exodeoxyribonuclease V (Escherichia coli (strain K12), UniProt P04993+P07648+P08394).
T4 sequence (P04993 whole entry): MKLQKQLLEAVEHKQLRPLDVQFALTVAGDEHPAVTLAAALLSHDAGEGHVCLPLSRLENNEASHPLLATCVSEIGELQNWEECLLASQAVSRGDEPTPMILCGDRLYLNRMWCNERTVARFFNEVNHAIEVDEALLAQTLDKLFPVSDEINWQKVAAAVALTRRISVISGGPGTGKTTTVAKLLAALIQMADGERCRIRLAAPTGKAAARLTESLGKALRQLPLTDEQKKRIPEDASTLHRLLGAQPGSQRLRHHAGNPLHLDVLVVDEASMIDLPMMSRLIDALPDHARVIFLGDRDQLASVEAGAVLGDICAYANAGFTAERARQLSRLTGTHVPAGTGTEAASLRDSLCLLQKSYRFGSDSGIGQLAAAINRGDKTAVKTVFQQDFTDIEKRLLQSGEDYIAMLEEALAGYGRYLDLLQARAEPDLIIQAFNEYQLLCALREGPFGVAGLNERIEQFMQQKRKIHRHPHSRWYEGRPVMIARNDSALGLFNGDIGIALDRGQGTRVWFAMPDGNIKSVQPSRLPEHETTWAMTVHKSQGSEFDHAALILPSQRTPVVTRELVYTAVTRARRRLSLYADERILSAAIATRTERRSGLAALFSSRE
T4 sequence (P07648 whole entry): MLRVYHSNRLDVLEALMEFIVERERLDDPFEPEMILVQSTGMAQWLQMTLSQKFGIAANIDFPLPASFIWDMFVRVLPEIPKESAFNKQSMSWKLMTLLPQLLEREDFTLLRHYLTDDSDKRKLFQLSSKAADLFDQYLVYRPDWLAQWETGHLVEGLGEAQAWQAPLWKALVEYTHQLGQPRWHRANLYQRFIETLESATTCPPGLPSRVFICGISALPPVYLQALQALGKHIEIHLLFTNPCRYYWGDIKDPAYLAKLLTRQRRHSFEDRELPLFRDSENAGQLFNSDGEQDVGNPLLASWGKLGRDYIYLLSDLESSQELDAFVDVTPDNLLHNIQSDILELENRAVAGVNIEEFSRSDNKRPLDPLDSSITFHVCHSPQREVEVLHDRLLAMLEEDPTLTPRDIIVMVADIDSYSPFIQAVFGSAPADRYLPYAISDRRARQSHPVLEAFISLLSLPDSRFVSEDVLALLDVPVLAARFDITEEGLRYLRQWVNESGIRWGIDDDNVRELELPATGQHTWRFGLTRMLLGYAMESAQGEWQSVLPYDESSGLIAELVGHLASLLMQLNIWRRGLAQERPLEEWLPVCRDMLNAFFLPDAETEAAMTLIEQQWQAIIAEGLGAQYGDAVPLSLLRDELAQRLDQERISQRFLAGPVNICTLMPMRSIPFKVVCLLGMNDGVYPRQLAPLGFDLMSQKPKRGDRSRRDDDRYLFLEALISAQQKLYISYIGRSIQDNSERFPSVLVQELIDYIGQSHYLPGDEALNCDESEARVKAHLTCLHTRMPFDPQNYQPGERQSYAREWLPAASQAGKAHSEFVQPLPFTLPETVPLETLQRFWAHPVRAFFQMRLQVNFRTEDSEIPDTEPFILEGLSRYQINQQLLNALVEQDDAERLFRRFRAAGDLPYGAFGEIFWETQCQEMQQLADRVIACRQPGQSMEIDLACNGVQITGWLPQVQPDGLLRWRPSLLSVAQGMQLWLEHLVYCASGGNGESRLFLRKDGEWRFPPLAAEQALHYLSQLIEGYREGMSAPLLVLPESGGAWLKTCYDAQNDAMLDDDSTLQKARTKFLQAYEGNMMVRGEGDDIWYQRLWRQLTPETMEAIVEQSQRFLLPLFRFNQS
T4 sequence (P08394 whole entry): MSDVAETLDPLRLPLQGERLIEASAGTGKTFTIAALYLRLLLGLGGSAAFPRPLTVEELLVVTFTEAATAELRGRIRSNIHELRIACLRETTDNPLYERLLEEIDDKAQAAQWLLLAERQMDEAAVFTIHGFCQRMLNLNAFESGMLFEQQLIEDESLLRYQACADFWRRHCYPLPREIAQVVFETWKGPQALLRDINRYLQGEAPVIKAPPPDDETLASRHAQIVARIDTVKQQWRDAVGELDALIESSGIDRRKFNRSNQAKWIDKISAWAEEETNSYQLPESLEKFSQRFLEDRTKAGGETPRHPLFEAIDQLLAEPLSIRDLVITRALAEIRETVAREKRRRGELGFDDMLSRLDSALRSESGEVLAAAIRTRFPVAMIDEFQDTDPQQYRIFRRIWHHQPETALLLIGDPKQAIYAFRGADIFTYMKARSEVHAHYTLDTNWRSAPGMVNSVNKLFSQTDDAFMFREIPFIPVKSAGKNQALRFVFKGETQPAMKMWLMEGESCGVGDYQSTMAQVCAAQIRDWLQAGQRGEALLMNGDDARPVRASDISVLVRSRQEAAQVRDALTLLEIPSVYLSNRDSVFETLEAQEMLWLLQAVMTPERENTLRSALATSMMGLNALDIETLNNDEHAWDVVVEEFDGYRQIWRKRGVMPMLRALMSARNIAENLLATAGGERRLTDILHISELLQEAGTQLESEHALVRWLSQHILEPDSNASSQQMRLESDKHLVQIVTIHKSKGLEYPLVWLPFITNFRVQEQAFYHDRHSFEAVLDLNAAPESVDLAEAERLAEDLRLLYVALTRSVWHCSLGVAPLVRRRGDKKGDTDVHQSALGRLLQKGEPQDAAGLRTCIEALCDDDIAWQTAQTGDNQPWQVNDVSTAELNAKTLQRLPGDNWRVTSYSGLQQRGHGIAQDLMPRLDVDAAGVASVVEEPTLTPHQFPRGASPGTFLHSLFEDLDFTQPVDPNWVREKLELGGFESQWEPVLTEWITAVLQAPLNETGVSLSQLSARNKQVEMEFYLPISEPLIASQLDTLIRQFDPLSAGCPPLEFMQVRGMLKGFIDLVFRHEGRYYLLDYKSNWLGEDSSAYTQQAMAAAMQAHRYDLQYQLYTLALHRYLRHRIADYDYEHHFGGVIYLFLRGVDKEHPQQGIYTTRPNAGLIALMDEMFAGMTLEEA
Description: RecBCD inhibition via phage-restricted bacterial growth – absorbance, V66 E. coli, mutant T4 phage, counter-screen for AddAB inhibitor project, dose response (AID 492957). It is filed as functional, cell-based, Escherichia coli str. K-12 substr. MG1655. Background: A counterscreen serves to expose hits that act by an unwanted route or on another target.

Each structure is given as a SMILES string. Where “and” joins values, the source holds several entries; their conditions need not be identical. Equal values may be shown once. Calls of active or inactive are those of the source. Bounds are passed on as bounds.

Usually IC50 stands for the midpoint of a concentration-inhibition curve. In the case of `Cc1cccc(C2c3[nH]c4ccccc4c3CCN2C(=O)c2cc3c(nc2O)CCCC3)n1` (stereo not given), the IC50 in [1] is 11.2 µM (active).
With `Cc1ccc(S(=O)(=O)Oc2ccc(/C=C3/C(=N)N4C(=NC3=O)SN=C4S(C)(=O)=O)cc2)cc1`, in [1], the IC50 is 13.8 µM (active).
In general, AC50 refers to the concentration giving half of the maximal activity seen. Take `Oc1cccc(C(O)CNCc2ccc(OCc3ccc(Cl)cc3Cl)cc2)c1` (stereo not given): the AC50 in assay [2] is 3.69 µM (active). For the same compound, the IC50 in [1] was 1.82 µM (active).
As for `O=C(OCC(=O)C12CC3CC(CC(C3)C1)C2)c1ccc(O)cc1O`, the CC50 in [3] was > 40 µM (active). Also, the AC50 in [4] is 24.5 µM (active).
Broadly, the EC50 is the concentration that produces a half-maximal response. Regarding `COc1ccc(OC)c(NC(=O)Nc2ccc(O)c3ccccc23)c1`, the AC50 in [5] is 11.5 µM (active); in assay [4], 0.434 µM (active). Further, at Protein RecA, the EC50 was 0.152 µM (active).
Take `C=CCn1cc(C(=O)NCCCN(CC)CC)c(=O)c2cc(S(=O)(=O)N3CCC(C)CC3)ccc21`: the IC50 in [1] is 13.2 µM (active).
Broadly, the GI50 is the concentration at which growth is held to half of that of the control. As for `O=C(/C=C/c1ccccc1)CCN1CCOCC1`, in assay [4], the half-maximal activity concentration (AC50) is 2.94 µM (active). In addition, the GI50 was 2.43 µM (inactive) in the assay on P388/ADR, 16.5 µM (inactive) in the assay on SN12K1 and 2.81 µM (inactive) in the assay with P388.
For the compound `CCc1cn([C@H]2C[C@H](O)[C@@H](CO)O2)c(=O)[nH]c1=O` [EDOXUDINE], the IC50 on Exodeoxyribonuclease V is > 119 µM (inactive) and > 118 µM (inactive).
